Experimental data as given in article PMC10305039, “Triphenylphosphonium (TPP)-Conjugated Quinolone Analogs Displayed Significantly Enhanced Fungicidal Activity Superior to Its Parent Molecule” (Journal of Fungi, 2023).

Tested on: T1, cytochrome bc1 complex (complex III) of P. capsici
T1 construct: gene cob; native complex III in freeze-thawed hyphal mitochondria isolated by differential centrifugation; not purified; with Cytochrome c1, heme protein, mitochondrial; Cytochrome b-c1 complex subunit Rieske, mitochondrial
Assay: complex III activity assay kit (Genmed GMS50009), hyphal mitochondria
Assay type: biochemical, Phytophthora capsici
Settings: freeze-thawed mitochondria; Qi site proposed, not shown

Cc1cc(=O)c2ccccc2n1OC(=O)CCCCCCCCCC[P+](c1ccccc1)(c1ccccc1)c1ccccc1 [mitoQNO11]
IC50: 3.33 µM
